Assay results as given in patent publication EP2068152A1, “c-Kit as a novel target for the treatment of pain” (Max-Delbrück-Centrum für Molekulare Medizin (MDC), priority 2007, dated 2009).

What was measured:
c-Kit = assay: Paw withdrawal test (radiant heat); format: in vivo, mice
Method: Paw withdrawal test. In the radiant paw-withdrawal test the mice were placed in a Plexiglas chamber (15 cm diameter, 22.5 cm in height). The stimulus was a high intensity beam directed at the plantar surface of the hindpaw; movement of the paw away from the beam results in the heat source being terminated, with the withdrawal latency indicated on a digital screen (Ugo Basile, Milan, Italy). Paw withdrawal latencies were determined alternately from both hindpaws (stimuli given every 30- 40 s). Criteria for inclusion of a data point were calm behavior of the mouse just prior to testing, and a clear paw withdrawal from the hot beam associated with paw flicking and grooming. Baseline values were taken once a day at the same time for a period of 3 days. c-Kit ligand (Stem Cell Factor, SCF, R&D Systems) was injected once intraperitoneally (1 mg/kg i.p.) into TRPV1 -l- and control C57B1/6 mice (adult females, 6- 8 weeks, 20-25 g body weight), and response latencies to radiant heating of the hind paw was measured at various times after injection as described.
The inventors therefore used the mast cell degranulating agent 48/80 to deplete resident mast cells of neuroactive substances prior to the administration of SCF.

Aβ mechanoreceptors = conditions: animals treated as adults with imatinib
C-fiber nociceptors = assay: In vitro skin nerve preparation: noxious heat response of CMH fibers from treated mice; format: in vivo
Method: The conduction velocity cut-off between Aβ and Aδ fibers was determined to be 9 m/s in c-Kit mutants based on measurements of the Aβ and Aδ wave in compound action potential recordings as previously described (Koltzenburg et al., 1997).

Cc1ccc(NC(=O)c2ccc(CN3CCN(C)CC3)cc2)cc1Nc1nccc(-c2cccnc2)n1 [imatinib, 4-[(4-Methyl-1-piperazinyl)methyl]-N-[4-methyl-3-[[4-(3-pyridinyl)-2-pyrimidinyl]amino]-phenyl]benzamide]
foot withdrawal latency to noxious heat (c-Kit; 5 days after daily imatinib treatment, 0.1 mg/g sub-cutaneously, n=6, vehicle treated mice 129 ±35%): 160 ±39 % of starting values
thermal hyperalgesia after SCF in pre-treated mice (c-Kit; two subcutaneous injections (0.1 mg/g) 18 hrs and 1 hr before SCF (1 µg/g, i.p.)): did not display any significant thermal hyperalgesia
proportion of RAM and SAM receptors (Aβ mechanoreceptors): no change in proportion of RAM and SAM receptors
C-fiber heat sensitivity (C-fiber nociceptors; imatinib 0.1 mg/g sub-cutaneously for 6-7 days): reduction in C-fiber heat sensitivity that was almost identical to that found in c-Kit^-/- and c-Kit^+/- mice
number of spikes per 1 second time window during the heat ramp (CMH fibers), curve versus control (C-fiber nociceptors; imatinib treated adult mice, heat ramp 32°C to 60°C, Two way ANOVA F=7.67 p<0.01): significantly different from control
fibers with responses >60 spikes/stimulus (high responders) (C-fiber nociceptors; imatinib treated mice, figure stated together with c-kit mutant mice, control C-fibers 47%): ~16%
